Results from PubChem BioAssay (NCI).
“And” between values parts separate entries of the source, which are not always exact repeats. Identical values can stand only once.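 Exposure lasted 48 hours, with cells grown in 96-well plates and compounds tested at five concentrations. GI50: concentration for 50% inhibition of growth. TGI marks complete inhibition of growth.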

Columns and labels:
Assay in all cases: NCI tumour cell line growth inhibition, 48 h
COLO 205 colon = system: COLO 205 colon
DMS 114 small cell lung = system: DMS 114 small cell lung
DMS 273 small cell lung = system: DMS 273 small cell lung
HCT-116 colon = system: HCT-116 colon
K-562 leukemia = system: K-562 leukemia
NCI-H23 lung = system: NCI-H23 lung
SR leukemia = system: SR leukemia
SK-MEL-2 melanoma = system: SK-MEL-2 melanoma
NCI/ADR-RES ovarian = system: NCI/ADR-RES ovarian
PC-3 prostate = system: PC-3 prostate

Compound | TGI (COLO 205 colon) | TGI (DMS 114 small cell lung) [µM] | TGI (DMS 273 small cell lung) [µM] | TGI (HCT-116 colon) | TGI (K-562 leukemia) | TGI (NCI-H23 lung) | TGI (SR leukemia) | TGI (SK-MEL-2 melanoma) | GI50 (COLO 205 colon) | GI50 (HCT-116 colon) | GI50 (K-562 leukemia) | GI50 (NCI-H23 lung) | GI50 (NCI/ADR-RES ovarian) | TGI (NCI/ADR-RES ovarian) | GI50 (PC-3 prostate) | TGI (PC-3 prostate) | GI50 (SK-MEL-2 melanoma) | GI50 (SR leukemia)
COC(=O)C1=C(c2cc(OC)c(OC)c(OC)c2)OC(c2cc(OC)c(OC)c(OC)c2)C1COC(C)=O (stereo unspecified) | 33.4 µM | > 100 | > 100 | > 100 µM | > 100 µM | > 100 µM | 52.2 µM | – | – | – | – | – | – | – | – | – | – | –
CN(/N=C/c1ccnc2ccccc12)c1ccc([N+](=O)[O-])cc1[N+](=O)[O-] | > 100 µM | > 100 | > 100 | – | > 100 µM | > 100 µM | – | 79.1 µM | – | – | – | – | – | – | – | – | – | –
CC1CCC2C(C)C3C(CC4C5CC=C6CC(OC7OC(CO)C(O)C(OC8OC(CO)C(O)C(O)C8O)C7OC7OC(C)C(O)C(O)C7O)CCC6(C)C5CCC43C)N2C1 (stereo unspecified) | 33 µM and > 2.5 µg/mL | – | – | 24.5 µM and > 2.5 µg/mL | 54.4 µM and > 2.5 µg/mL | 29.8 µM and > 2.5 µg/mL | 29 µM and > 2.5 µg/mL | 34.8 µM and > 2.5 µg/mL | > 2.5 µg/mL | > 2.5 µg/mL | > 2.5 µg/mL | > 2.5 µg/mL | > 2.5 µg/mL | 34.8 µM and > 2.5 µg/mL | > 2.5 µg/mL | 28.5 µM and > 2.5 µg/mL | > 2.5 µg/mL | > 2.5 µg/mL
O=C(CCCNC(=O)OCc1ccccc1)OCc1ccc2c(c1)C(=O)c1ccccc1C2=O | > 23 µM | > 100 | > 100 | > 100 µM | > 100 µM | > 100 µM | > 100 µM | > 100 µM | – | – | – | – | – | – | – | – | – | –
CCc1ccc(/C(C)=N/NC(N)=S)cc1 | > 100 µM | > 100 | – | > 100 µM | > 100 µM | > 100 µM | > 100 µM | > 100 µM | – | – | – | – | – | – | – | – | – | –
NS(=O)(=O)c1ccc(NC(=O)CC(=O)Nc2ccc(S(N)(=O)=O)cc2)cc1 | > 100 µM | > 100 | > 100 | > 100 µM | > 100 µM | > 100 µM | > 100 µM | > 100 µM | – | – | – | – | – | – | – | – | – | –
O=C(O)c1ccc(-c2ccc(C(=O)O)cc2I)c(I)c1 | > 100 µM | – | – | > 100 µM | > 100 µM | > 100 µM | > 100 µM | > 100 µM | > 100 µM | > 100 µM | > 100 µM | > 100 µM | > 100 µM | > 100 µM | > 100 µM | > 100 µM | > 100 µM | > 100 µM
Cc1c2ncccc2nc2[nH]c3ccc(OCCN(C)C)cc3c12 | 7.94 µM | – | – | 12.3 µM | 14.6 µM | 21 µM | 7.95 µM | 15.1 µM | 1.5 µM | 0.552 µM | 0.802 µM | 2.54 µM | 1.1 µM | 17.4 µM | 1.86 µM | 10.9 µM | 3.03 µM | 0.734 µM
c1ccc2cc(OCC3CO3)c(OCC3CO3)cc2c1 (stereo unspecified) | 25.3 µM | – | – | 3.11 µM | 25.1 µM | 12.8 µM | 2.15 µM | 29 µM | – | – | – | – | – | 27.3 µM | – | 32.1 µM | – | –
CCCCCCCCCCCCOC1C(C(COC2OC(C(O)CN3CCCCC3)C3OC(C)(C)OC23)NC(=O)Nc2ccccc2)OC2OC(C)(C)OC21 (stereo unspecified) | 16.8 µM | – | – | 12.7 µM | 5.65 µM | 37.1 µM | 4.3 µM | 41.6 µM | 3.86 µM | 4.54 µM | 2.06 µM | 17.9 µM | 15.3 µM | 33.3 µM | 10.7 µM | 24.9 µM | 19.6 µM | 1.91 µM
CCCCSCc1nc2nc(Cl)c(Cl)nc2[nH]1 | 37 µM | – | – | 40.6 µM | 99.5 µM | 44.6 µM | 52.3 µM | 43.3 µM | – | – | – | – | – | 90.8 µM | – | > 100 µM | – | –
O=C1/C(=C/c2ccc([N+](=O)[O-])s2)Oc2ccccc21 | 2.66 µM | – | – | 0.791 µM | 0.728 µM | 3.19 µM | 0.759 µM | 3.04 µM | 1.26 µM | 0.267 µM | 0.243 µM | 1.31 µM | 1.74 µM | 9.25 µM | 0.387 µM | 2.26 µM | 0.945 µM | 0.216 µM
O=C(/C=C/c1c(O)ccc2ccccc12)c1cccc2ccccc12 | > 100 µM | > 100 | > 100 | > 100 µM | > 88.6 µM | > 100 µM | > 100 µM | > 100 µM | – | – | – | – | – | – | – | – | – | –
CCn1c(-c2nonc2N)nc2c(C#CC(C)(C)O)nc(O[C@@H](CN)c3ccccc3)cc21 | 0.646 µM | – | – | 2.61 µM | 4.26 µM | 2.97 µM | 3.59 µM | 0.737 µM | 0.123 µM | 0.121 µM | 0.122 µM | 0.344 µM | 6.38 µM | 25 µM | 0.0858 µM | 9.94 µM | 0.188 µM | 0.099 µM
